Entries after “also recorded” stand apart in the source; their conditions may differ. Read-outs that look alike come from different tables or passages of the source.
Experiments:
[1] = system: U1242 cell line; test: Cell proliferation of GBM cells; format: cell-based, human; conditions: for cell proliferation / anti proliferative activity: GBM cells (U1242), vs DMSO control
Protocol: (§1) Confocal microscopy was used with mAbs specific for symmetrical dimethylation (S2Me) of histone H4R3. Positive control for loss of PRMT5 activity was provided by treatment of U1242 cells with a PRMT5-specific siRNA used in above experiments. (B) Cell proliferation was assessed in replicate cultures incubated in DMSO and compounds 1-8.
Preliminary enzymatic activity assays are currently underway and will be provided as an update during submission of supplementary materials.

[2] = target: purified PRMT1 (Homo sapiens, UniProt Q99873); conditions: 100-500 uM, one hour at 37 C, 3 replicate experiments, p<0.0001
Description: (§2) Do achieve this, we performed enzyme inhibition assays using purified PRMT1 (a type I PRMT enzyme) and purified PRMT5 (a type II PRMT enzyme).
(§3) The next step required studies to explore whether CMP5 was capable of selectively inhibiting a type II PRMT enzyme. Type I PRMT enzymes are involved in transcriptional activation (asymmetric dimethylation at H4R3) and type II PRMT enzymes regulates transcriptional repression (symmetric dimethylation or S2Mc at H4R3). To achieve this goal, we performed enzyme inhibition assays using purified PRMT1 (type I PRMT enz) and purified PRMT5 (type II PRMT enz). Assays were performed utilizing 2 methods. The first utilized methods described previously by Zhao et at (Nat Struct Mol Biol. 2009), where 1 ug of H4 (Roche) was used as substrate and 2 uCi of S-adenosyl-L-methyl-^3H-methionine (^3H-SAM; Amersham) as the methyl donor in the presence or absence of 100-500 uM of CMP5 was incubated in HMTase buffer for 3 h at 37° C. Reaction mixtures were spotted on Whatman P-81 filter paper and washed to remove unincorporated [^3H]SAM. Methylated peptides were detected by scintillation counting. […] The second method utilized a methyltransferase activity assay to distinguish if differential inhibitory activity of CMP5 existed against the type I PRMT1 vs. the type II enzyme PRMT. The methyltransferase assay we used (Amsbio inc) utilized purified PRMT5 and PRMT1 enzyme preparations and tested for methylation of Histone H4 at arginine 3 (H4R3). SAM was incubated with a sample containing substrate H4 peptide, different concentrations of methyltransferase enzymes (PRMT5 or PRMT1), in presence or absence of CMP5 (100-500 uM) for one hour at 37° C. Fluorescently labeled SAM tracer was added followed by anti-SAM antibody that produces a change in fluorescent polarization that can be measured using a fluorescence reader.

[3] = target: T1, purified PRMT5 (Homo sapiens, UniProt O14744)
Description: as §2, §3

[4] = system: symmetrical dimethylation (S2Me) of histone H4R3 in glioma cell line U1242; test: Symmetric dimethyl H4R3 (S2Me-H4R3) content in glioma/astrocytoma cell lines by confocal microscopy and flow cytometry; format: cell-based, human; conditions: for S2Me-H4R3 in astrocytoma cell lines, single agent or combined: CMP5 at 25 uM, HDAC inhibitor TSA; for H4R3 symmetric 2Me arginine methylation (S2Me): U1242, 8 hour incubation, confocal microscopy; for S2Me-H4R3 content, flow cytometric assay (FIG. 18): U1242 and U251, TSA (25 nM) and/or CMP5 (25 uM)
Protocol: as §1
Initial Screening experiments were performed utilizing monoclonal antibodies specific for H4R3 symmetric dimethyl arginine and confocal microscopy generated images evaluating H4R3 methylation. Controls included scrambled and SiRNA specific for PRMT5 to verify knockdown and loss of H4R3 methylation. […] Findings similar to PRMT5-specific SiRNA treatment.
Recent work reported by Pal et al has shown that PRMT5 associates with SWI/SNF chromatin remodeling complexes along with other co-repressor molecules like HDAC2. […] We utilized a flow cytometric assay to evaluate symmetric dimethyl H4R3 (S2Me-H4R3) content and confocal microscopy to verify loss of methylation status.
(§4) The biochemical association of PRMT5 and HDAC2 with repressive chromatin remodeling complexes and cooperative enzyme kinetics has been previously described. […] As a control, we utilized a flow cytometric assay to evaluate symmetric dimethyl H4R3 (S2Me-H4R3, FIG. 18) content and confocal microscopy (not shown) to verify decrease of methylation status. We used Aimexin V/PI staining and flow cytometry to examine apoptosis (below). […] We are presently performing dose response experiments to examine whether this activity can be improved. In data not shown, we can achieve similar results with lower doses of CMP5 (10 uM). […] Inhibition PRMT5 with CMP5 and HDAC enzymes (at 10 fold lower concentrations) leads to synergistic induction of apoptosis of astrocytoma cell lines.

[5] = target: T1, purified PRMT5; conditions: 100-500 uM CMP5, H4 substrate, 3H-SAM, 3 h at 37 C; ±7.8%, p<0.001, data not shown
Protocol: as §3, with “The methyltransferase assay we used (Amsbio inc) utilized purified PRMT5 and PRMT1 enzyme preparations and tested for methylation of Histone H4 at arginine 3 (H4R3). SAM was incubated with a sample containing substrate H4 peptide, different concentrations of methyltransferase enzymes (PRMT5 or PRMT1), in presence or absence of CMP5 (100-500 uM) for one hour at 37° C.” left out

[6] = system: astrocytoma cell lines (U1242 and U251); test: Apoptosis of GBM/astrocytoma cell lines (Annexin V/PI, flow cytometry); format: cell-based, human; conditions: single agents, not shown
Description: (B) inhibition of migration at 12 hrs after addition of siRNA to knock down PRMT5 vs. Scramble siRNA control.
as §4

[7] = target: human pure PRMT5 enzyme (Homo sapiens, UniProt O14744); test: In vitro methylation assay; format: biochemical; conditions: FIG. 21 left
Protocol: SAM was omitted for the substrate control, and human pure PRMT5 enzyme was omitted for blank control. (right) Jeko and Mino cells were treated by 10 uM of BLL36 for 24 hr, viability was evaluated by flow cytometry.

[8] = compound 5 at 20, 30, 40, 50 and 100 uM, 48 hours

Sequence of purified PRMT1 (Q99873 whole entry, species assumed): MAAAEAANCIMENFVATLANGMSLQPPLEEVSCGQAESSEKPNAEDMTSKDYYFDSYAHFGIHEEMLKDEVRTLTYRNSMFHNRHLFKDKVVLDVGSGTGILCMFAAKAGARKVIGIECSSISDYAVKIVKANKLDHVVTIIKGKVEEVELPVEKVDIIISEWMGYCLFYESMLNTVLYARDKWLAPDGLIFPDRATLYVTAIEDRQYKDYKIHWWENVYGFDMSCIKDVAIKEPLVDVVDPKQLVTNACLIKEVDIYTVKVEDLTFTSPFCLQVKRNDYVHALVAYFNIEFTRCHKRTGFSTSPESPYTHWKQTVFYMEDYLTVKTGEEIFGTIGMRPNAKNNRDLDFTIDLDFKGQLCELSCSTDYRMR
T1 sequence (O14744 whole entry): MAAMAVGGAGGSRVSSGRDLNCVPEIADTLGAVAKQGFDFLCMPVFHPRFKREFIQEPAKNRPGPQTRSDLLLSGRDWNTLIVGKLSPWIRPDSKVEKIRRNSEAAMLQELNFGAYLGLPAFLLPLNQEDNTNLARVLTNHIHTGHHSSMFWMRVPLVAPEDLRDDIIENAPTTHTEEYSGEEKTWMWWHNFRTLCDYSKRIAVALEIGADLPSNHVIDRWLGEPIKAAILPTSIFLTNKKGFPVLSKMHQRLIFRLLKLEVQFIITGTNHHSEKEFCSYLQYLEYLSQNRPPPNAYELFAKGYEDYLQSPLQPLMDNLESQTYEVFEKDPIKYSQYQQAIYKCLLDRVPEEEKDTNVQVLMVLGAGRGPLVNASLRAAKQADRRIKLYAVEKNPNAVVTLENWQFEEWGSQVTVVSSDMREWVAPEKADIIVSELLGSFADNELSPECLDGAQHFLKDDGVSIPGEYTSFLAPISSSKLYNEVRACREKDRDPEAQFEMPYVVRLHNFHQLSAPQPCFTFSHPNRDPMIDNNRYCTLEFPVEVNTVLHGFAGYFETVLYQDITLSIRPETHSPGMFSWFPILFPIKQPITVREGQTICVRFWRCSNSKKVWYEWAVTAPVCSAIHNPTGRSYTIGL
T1 sequence (Q9BQA1 whole entry partner): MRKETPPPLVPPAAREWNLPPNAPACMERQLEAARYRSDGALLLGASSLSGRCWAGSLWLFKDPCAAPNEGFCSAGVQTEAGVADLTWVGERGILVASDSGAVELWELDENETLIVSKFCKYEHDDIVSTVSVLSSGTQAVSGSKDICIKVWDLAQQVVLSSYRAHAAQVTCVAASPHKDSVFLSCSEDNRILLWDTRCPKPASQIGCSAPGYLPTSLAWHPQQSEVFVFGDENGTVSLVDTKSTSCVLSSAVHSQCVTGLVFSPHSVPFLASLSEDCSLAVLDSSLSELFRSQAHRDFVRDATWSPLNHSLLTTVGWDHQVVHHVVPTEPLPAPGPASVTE
Sequence of human pure PRMT5 enzyme (O14744 whole entry): as the sequence (O14744 whole entry) above
Sequence of human pure PRMT5 enzyme (Q9BQA1 whole entry partner): as the sequence (Q9BQA1 whole entry partner) above

Structure (SMILES) | cell proliferation / anti proliferative activity [1] | cell proliferation / anti proliferative activity ([1]; listed as CMP5) | cellular proliferation (absolute cell numbers), titration [1, 8] | inhibition of PRMT1 activity [2] | inhibition of PRMT1 activity ([2]; listed as CMP5) | inhibition of PRMT5 activity ([3]; 100-500 uM, one hour at 37 C, 3 replicate experiments, p<0.0001) | IC50 ([3]; lead compound of the initial screen) | S2Me-H4R3 in astrocytoma cell lines, single agent or combined [4] | concentration of compound 5 giving loss of S2Me status of H4R3 on co-treatment with HDACi TSA ([4]; GBM cell lines, co-treated with TSA) [µM] | fold lower concentration of compound 5 for loss of S2Me H4R3 on co-treatment with TSA ([4]; GBM cell lines, co-treated with TSA (75, 100 nM)) [fold] | H4R3 symmetric 2Me arginine methylation (S2Me) [4] | H4R3 symmetric 2Me arginine methylation (S2Me) ([4]; listed as CMP5) | S2Me-H4R3 content, flow cytometric assay (FIG. 18) [4] | degree of H4R3 methylation, titration [4, 8] | concentration of CMP5 required for reduced methylation, single agent ([4]; original dose response experiments) [µM] | reduction of methyltransferase activity [5] [%] | apoptosis of GBM cell lines [6] | concentration that decreased methyltransferase activity of PRMT5 [7] [µM]
CCn1c2ccccc2c2cc(CNCc3ccccn3)ccc21 [Compound 5] | most efficacy; also recorded: reduced cell proliferation | antiproliferative effect | a dose response was seen | not PRMT1 activity | not PRMT1 enzymatic activity | selectively inhibiting PRMT5 activity | micromolar (uM) ranges | unchanged | 10 | > 10 | most efficacy; also recorded: best activity; also recorded: reduced; also recorded: capable of inhibiting H4R3 symmetric 2Me arginine methylation | loss of symmetric dimethyl-H4R3 | no change in S2Me-H4R3 | a dose response was seen | 100 | 55 | promote apoptosis of GBM cell lines | 100
CC(/C=C/C(=O)NO)=C\[C@@H](C)C(=O)c1ccc(N(C)C)cc1 [TSA, Trichostatin A, reference compound] | – | – | – | – | – | – | – | unchanged | – | – | – | – | no change in S2Me-H4R3 | – | – | – | – | –

Source: patent publication US9676749B2, “Compositions and methods for cancer detection and treatment” (Ohio State Innovation Foundation, priority 2009, dated 2017)
